Data as given in publication PMC9072249 (Acta Pharmaceutica Sinica. B, 2021).

Test system: SD rat with neuropathic pain model induced by spared nerve injury (SNI)
Assay: Neuropathic pain model induced by spared nerve injury
Format: in vivo
Conditions: SNI SD rats, po BID, 60 mg/kg/day, 20 days

Compound: NCC1(CC(=O)O)CCCCC1 [gabapentin]
- course of efficacy over the study: gradually reduced
